# Laboratory results taken from ChEMBL document CHEMBL1165921, “New potent inhibitors of tyrosinase: novel clues to binding of 1,3,4-thiadiazole-2(3H)-thiones, 1,3,4-oxadiazole-2(3H)-thiones, 4-amino-1,2,4-triazole-5(4H)-thiones, and substituted hydrazides to the dicopper active site” (Bioorg Med Chem, 2010).
# Target: T1, Tyrosinase (Agaricus bisporus, UniProt O42713)
# T1 sequence (O42713 whole entry): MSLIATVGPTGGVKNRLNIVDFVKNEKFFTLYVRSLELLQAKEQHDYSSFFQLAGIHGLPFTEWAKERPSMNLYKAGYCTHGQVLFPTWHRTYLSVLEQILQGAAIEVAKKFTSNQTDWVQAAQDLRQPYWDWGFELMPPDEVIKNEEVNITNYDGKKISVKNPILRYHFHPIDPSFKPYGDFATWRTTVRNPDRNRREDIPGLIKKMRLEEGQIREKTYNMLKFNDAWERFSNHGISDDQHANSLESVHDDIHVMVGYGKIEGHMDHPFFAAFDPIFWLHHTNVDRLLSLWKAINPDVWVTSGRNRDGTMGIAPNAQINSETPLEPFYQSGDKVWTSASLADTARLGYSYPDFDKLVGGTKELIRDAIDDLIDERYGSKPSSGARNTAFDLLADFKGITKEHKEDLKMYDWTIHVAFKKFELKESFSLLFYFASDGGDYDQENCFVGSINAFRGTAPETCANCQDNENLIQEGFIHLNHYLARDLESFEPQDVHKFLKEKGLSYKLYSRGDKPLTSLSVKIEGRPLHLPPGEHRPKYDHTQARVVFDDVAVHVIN
# Description: Inhibition of mashroom tyrosinase
row,Ki,SMILES
1,2.4 µM,Nn1c(-c2ccc(O)cc2)n[nH]c1=S
2,2.9 µM,S=c1[nH]nc(-c2n[nH]c(=S)s2)s1
3,6.47 µM,S=c1[nH]nc(-c2ccccc2)o1
4,3.67 µM,Sc1nnc(Cc2ccccc2)o1
5,49 µM,NNC(=O)c1ccc(OCc2ccccc2)cc1
6,69.4 µM,S=c1[nH]nc(-c2n[nH]c(=S)o2)o1
7,33.6 µM,S=c1[nH]nc(-c2cccc3ccccc23)o1
8,99.6 µM,NNC(=O)c1ccc2ccccc2c1
9,1.77 µM,Oc1ccc(-c2nnc(S)o2)cc1
10,4.94 µM,S=c1[nH]nc(C2CCCCC2)o1
11,1.01 µM,Nn1c(-c2ccncc2)n[nH]c1=S
12,14.2 µM,Sc1nnc(-c2ccncc2)o1
13,5.2 µM,S=c1[nH]nc(C(c2ccccc2)c2ccccc2)s1
14,6.76 µM,Sc1nnc(C(c2ccccc2)c2ccccc2)o1
15,1.9 µM,Sc1nnc(CCCc2nnc(S)o2)o1
16,3.64 µM,Sc1nnc(-c2cccc(OCc3ccccc3)c2)o1
17,0.49 µM,Sc1nnc(Cc2nnc(S)s2)s1
18,18.5 µM,Oc1cccc(-c2nnc(S)o2)c1
19,0.53 µM,CC(C)(C)[Si](C)(C)Oc1ccc(-c2nnc(S)s2)cc1
20,0.19 µM,Oc1ccc(-c2nnc(S)s2)cc1
21,2.47 µM,S=c1[nH]nc(-c2ccncc2)s1
22,1.31 µM,Sc1nnc(-c2ccccc2)s1
23,1.35 µM,S=c1[nH]nc(-c2ccc(OCc3ccccc3)cc2)o1
24,4.42 µM,Sc1nnc(Cc2nnc(S)o2)o1

row,SMILES,Ki
1,NNC(=O)c1ccc(O)cc1,177 µM
